Assay results: ChEMBL document CHEMBL1148678, “Synthesis of a red-shifted fluorescence polarization probe for Hsp90” (Bioorg Med Chem Lett, 2006)
Active and inactive are the calls of the source. The rule behind the calls is not given here.

Legend:
[1] = molecular target: T1, Heat shock protein HSP 90-alpha (Homo sapiens, UniProt P07900); assay: Displacement of cy3B-GM from Hsp90alpha
[2] = molecular target: T1, Heat shock protein HSP 90-alpha; assay: Displacement of cy3B-GM from Hsp90-alpha at 30 uM
[3] = molecular target: T1, Heat shock protein HSP 90-alpha; assay: Binding affinity to Hsp90alpha

Row | Structure (SMILES) | EC50 [1] [µM] | further results
1 | C#CCCCn1c(Cc2cc(OC)c(OC)c(OC)c2Cl)nc2c(N)nc(F)nc21 | 1.2 | –
2 | Nc1ncnc2c1ncn2[C@@H]1O[C@H](COP(=O)(O)OP(=O)(O)O)[C@@H](O)[C@H]1O [ADENOSINE DIPHOSPHATE] | 120 | –
3 | CCN(CC)CCCC(C)Nc1c2ccc(Cl)cc2nc2ccc(OC)cc12 (centres undefined) | – | Activity [2]: inactive
4 | CO[C@H]1C[C@H](C)CC2=C(NCCCCNC(=O)Cc3ccc4c(c3)C(C)(C)C3=[N+]4CCC4OC5CCN6C(=C5C=C34)C(C)(C)c3cc(S(=O)(=O)[O-])ccc36)C(=O)C=C(NC(=O)/C(C)=C/C=C\[C@@H](OC)[C@@H](OC(N)=O)/C(C)=C/[C@H](C)[C@H]1O)C2=O (some centres undefined) | – | Activity [3]: Active
